Experimental data taken from patent US10822431B2, “Fucoidan preparation, zinc-bound fucoidan and use thereof” (South Product Ltd., priority 2015, dated 2020).

System: Hep G2 cells
Experiment: Cytotoxicity test using Hep G2 cells (MTT assay)
Assay type: cell-based
Details: up to 500 μg/ml; zinc only as a comparison
Description: Cytotoxicity Test Using Hep G2 Cells:
[…] P. (2000). “Cytotoxicity and Viability Assays”. In Masters, J. R. W. Animal Cell Culture: A Practical Approach, 3rd) using Hep G2 cells were conducted on these preparations.

## [Zn] [zinc]
  Cytotoxicity of Hep G2 cells: no cytotoxicity of Hep G2 cells was confirmed
